Key:
MNK1 = MNK1 (Homo sapiens, UniProt Q9BUB5); test: Kinase profiling; assay type: biochemical
BRSK1 = target: T1, BRSK1 (Homo sapiens, UniProt Q8TDC3); test: Kinase profiling; assay type: biochemical
T1 sequence (Q8TDC3 1-778): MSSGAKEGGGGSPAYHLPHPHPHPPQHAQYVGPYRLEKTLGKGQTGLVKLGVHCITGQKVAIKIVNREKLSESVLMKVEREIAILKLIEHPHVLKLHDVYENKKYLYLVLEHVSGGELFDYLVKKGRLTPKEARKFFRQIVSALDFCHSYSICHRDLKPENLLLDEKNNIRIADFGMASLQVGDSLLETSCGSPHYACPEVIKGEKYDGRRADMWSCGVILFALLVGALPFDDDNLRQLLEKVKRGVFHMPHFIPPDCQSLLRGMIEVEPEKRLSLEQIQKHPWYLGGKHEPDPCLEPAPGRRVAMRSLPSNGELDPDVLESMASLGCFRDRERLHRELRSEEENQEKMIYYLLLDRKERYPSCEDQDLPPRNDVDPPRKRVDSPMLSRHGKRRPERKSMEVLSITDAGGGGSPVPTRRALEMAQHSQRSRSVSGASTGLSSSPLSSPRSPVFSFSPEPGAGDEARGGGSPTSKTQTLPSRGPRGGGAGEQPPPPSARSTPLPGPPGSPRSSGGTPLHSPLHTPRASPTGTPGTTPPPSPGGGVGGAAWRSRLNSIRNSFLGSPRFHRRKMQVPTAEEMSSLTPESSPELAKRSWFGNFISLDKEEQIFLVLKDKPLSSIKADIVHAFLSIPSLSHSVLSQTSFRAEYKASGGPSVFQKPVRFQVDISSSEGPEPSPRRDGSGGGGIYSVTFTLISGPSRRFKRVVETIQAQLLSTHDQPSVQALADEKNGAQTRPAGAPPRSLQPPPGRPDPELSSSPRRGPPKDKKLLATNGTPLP

TGFBR1 = TGFBR1 (Homo sapiens, UniProt P36897); test: Kinase profiling; assay type: biochemical
Src = Src (Homo sapiens, UniProt P12931); test: Kinase profiling; assay type: biochemical
EIF2AK3 = target: T2, EIF2AK3 (Homo sapiens, UniProt Q9NZJ5); test: Kinase profiling; assay type: biochemical
T2 sequence (Q9NZJ5 30-1116): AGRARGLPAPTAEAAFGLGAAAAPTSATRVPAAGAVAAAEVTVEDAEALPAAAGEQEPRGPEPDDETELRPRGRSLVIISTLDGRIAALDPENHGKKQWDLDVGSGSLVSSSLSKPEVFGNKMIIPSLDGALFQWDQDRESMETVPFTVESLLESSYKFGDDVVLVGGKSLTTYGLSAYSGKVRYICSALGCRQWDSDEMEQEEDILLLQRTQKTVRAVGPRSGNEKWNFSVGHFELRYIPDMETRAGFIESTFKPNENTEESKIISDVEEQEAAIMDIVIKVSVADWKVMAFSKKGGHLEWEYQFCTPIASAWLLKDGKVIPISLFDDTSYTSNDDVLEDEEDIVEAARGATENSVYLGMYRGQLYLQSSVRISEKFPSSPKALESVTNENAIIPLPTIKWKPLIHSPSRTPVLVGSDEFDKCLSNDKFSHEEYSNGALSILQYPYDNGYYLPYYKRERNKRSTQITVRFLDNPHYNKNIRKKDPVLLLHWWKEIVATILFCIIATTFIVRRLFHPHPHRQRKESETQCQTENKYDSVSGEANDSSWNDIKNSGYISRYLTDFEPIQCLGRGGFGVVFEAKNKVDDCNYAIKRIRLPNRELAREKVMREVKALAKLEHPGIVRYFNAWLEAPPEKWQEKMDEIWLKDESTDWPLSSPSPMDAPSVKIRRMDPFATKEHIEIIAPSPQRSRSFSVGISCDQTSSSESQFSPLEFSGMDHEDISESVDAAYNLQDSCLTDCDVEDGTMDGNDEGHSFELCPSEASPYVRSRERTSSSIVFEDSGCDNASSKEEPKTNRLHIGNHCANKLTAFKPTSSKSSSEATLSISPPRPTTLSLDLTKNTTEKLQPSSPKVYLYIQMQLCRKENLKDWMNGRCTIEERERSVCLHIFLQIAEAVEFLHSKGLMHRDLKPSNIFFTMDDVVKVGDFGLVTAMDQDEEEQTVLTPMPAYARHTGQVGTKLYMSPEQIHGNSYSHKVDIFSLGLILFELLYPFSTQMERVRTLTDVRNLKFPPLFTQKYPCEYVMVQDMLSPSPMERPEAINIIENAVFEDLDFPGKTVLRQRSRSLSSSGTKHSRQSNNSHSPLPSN

YES1 = YES1 (Homo sapiens, UniProt P07947); test: Kinase profiling; assay type: biochemical
STK33 = STK33 (Homo sapiens, UniProt Q9BYT3); test: Kinase profiling; assay type: biochemical
Lck = Lck (Homo sapiens, UniProt P06239); test: Kinase profiling; assay type: biochemical
SIK3 = target: T3, SIK3 (Homo sapiens, UniProt Q9Y2K2); test: Kinase assay, IC50 curve; assay type: biochemical; conditions: read-out: IC50 against SIK3
T3 construct: GST; made in house; host or cells: HEK293 cells

MAPKAP-K3 = MAPKAP-K3 (Homo sapiens, UniProt Q16644); test: Kinase profiling; assay type: biochemical
PKC gamma = PKC gamma (Homo sapiens, UniProt P05129); test: Kinase profiling; assay type: biochemical
[1] = tested on: Bone-marrow-derived macrophages; test: IL-10 secretion (BIOPLEX) in LPS-stimulated macrophages; assay type: cell-based, mouse; conditions: for EC50: Mus musculus, Macrophage, read-out: EC50 for elevation of IL-10 secretion; for IL-10 production at optimal dose: dasatinib 300 nM, bosutinib 3 μM, HG-9-91-01 500 nM, LPS-stimulated
Procedure: The concentration of TNFα, IL-6, IL-10 and IL-12p40 in cell-free culture supernatants were measured using the Bio-Plex Pro Assay system (Bio-Rad).

BTK = BTK (Homo sapiens, UniProt Q06187); test: Kinase assay, IC50 curve; assay type: biochemical; design: BTK (amino acids 2–659); His6 (N); made in house; host or cells: Sf9 insect cells; conditions: read-out: IC50 against BTK
BTK, sequence (Q06187 2-659, species assumed): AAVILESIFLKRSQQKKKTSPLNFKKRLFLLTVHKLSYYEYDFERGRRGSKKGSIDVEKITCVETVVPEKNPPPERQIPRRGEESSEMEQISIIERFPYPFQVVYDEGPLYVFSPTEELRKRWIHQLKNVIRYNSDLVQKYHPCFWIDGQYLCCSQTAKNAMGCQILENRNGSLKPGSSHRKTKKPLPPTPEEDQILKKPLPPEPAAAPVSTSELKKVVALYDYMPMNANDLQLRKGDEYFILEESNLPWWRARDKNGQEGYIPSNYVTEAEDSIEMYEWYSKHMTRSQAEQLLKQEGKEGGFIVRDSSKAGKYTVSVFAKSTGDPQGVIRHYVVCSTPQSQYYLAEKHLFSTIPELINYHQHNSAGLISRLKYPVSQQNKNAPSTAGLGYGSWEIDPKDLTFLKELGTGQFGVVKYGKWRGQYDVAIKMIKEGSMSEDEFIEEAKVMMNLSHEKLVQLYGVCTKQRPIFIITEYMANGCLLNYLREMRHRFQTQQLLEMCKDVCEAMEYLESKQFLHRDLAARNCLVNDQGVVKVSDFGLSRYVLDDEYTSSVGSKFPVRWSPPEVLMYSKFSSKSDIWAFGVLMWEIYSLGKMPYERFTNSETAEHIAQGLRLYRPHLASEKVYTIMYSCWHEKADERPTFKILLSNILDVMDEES

MAPKAP-K3, sequence (Q16644 whole entry): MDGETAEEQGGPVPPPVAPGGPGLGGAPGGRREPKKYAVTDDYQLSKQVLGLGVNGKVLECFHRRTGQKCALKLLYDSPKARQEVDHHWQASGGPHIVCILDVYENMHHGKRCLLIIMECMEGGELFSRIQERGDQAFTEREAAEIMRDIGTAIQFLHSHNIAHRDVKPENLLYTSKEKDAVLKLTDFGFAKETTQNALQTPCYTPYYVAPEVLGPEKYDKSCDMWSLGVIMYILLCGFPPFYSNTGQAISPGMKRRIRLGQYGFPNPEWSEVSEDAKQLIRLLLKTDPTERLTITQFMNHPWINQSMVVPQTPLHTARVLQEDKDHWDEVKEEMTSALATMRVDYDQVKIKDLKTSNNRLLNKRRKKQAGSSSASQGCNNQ
MNK1, sequence (Q9BUB5 whole entry): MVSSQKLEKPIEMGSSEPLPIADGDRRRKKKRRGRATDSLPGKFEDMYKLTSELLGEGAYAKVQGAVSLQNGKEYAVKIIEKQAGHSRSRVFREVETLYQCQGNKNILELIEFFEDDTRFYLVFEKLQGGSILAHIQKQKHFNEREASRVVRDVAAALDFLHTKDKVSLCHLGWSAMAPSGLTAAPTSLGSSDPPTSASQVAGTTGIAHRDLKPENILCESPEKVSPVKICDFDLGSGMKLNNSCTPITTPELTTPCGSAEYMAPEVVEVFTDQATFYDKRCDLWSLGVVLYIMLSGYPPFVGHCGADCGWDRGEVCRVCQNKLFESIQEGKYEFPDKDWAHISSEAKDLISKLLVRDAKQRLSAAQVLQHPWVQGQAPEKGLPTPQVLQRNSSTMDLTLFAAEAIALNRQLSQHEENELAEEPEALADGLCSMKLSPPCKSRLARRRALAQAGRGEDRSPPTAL
TGFBR1, sequence (P36897 34-503): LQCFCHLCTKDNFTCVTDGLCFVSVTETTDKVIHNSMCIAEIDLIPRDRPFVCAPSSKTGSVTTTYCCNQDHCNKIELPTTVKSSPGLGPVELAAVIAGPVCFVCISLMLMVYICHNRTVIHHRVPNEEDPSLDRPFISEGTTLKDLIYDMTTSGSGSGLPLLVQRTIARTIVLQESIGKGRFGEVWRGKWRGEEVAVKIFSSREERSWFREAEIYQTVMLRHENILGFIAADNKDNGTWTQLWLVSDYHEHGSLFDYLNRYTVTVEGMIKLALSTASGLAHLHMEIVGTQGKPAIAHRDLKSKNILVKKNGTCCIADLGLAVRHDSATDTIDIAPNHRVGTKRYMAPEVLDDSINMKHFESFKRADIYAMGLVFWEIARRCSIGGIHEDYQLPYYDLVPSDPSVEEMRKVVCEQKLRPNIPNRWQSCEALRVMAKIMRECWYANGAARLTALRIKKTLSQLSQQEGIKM
Lck, sequence (P06239 whole entry): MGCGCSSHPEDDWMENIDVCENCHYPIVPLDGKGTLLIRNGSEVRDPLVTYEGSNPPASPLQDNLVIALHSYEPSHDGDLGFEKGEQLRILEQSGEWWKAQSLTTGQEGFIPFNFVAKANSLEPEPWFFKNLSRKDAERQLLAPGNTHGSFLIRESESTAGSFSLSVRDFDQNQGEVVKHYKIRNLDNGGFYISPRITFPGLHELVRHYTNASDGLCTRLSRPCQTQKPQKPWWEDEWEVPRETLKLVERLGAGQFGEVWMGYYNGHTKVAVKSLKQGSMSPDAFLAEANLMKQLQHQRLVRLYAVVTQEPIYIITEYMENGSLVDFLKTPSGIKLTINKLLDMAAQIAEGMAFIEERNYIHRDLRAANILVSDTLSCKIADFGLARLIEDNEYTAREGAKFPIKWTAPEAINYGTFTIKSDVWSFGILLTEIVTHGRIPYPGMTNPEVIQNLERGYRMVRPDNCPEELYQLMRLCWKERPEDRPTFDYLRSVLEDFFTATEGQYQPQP
Src, sequence (P12931 whole entry): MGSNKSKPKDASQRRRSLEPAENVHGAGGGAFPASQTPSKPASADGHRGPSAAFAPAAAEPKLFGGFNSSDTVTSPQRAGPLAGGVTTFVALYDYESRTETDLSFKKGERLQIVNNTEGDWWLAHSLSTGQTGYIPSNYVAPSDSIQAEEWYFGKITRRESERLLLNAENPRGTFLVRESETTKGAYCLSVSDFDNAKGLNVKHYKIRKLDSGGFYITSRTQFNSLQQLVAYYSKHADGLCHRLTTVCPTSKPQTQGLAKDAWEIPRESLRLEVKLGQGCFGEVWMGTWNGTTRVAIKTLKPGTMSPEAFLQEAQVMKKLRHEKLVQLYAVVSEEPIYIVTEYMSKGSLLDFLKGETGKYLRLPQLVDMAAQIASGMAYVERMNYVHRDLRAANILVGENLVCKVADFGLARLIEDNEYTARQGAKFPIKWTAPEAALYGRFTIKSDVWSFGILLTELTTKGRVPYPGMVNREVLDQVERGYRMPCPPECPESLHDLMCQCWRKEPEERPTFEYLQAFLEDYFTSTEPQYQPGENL
STK33, sequence (Q9BYT3 whole entry): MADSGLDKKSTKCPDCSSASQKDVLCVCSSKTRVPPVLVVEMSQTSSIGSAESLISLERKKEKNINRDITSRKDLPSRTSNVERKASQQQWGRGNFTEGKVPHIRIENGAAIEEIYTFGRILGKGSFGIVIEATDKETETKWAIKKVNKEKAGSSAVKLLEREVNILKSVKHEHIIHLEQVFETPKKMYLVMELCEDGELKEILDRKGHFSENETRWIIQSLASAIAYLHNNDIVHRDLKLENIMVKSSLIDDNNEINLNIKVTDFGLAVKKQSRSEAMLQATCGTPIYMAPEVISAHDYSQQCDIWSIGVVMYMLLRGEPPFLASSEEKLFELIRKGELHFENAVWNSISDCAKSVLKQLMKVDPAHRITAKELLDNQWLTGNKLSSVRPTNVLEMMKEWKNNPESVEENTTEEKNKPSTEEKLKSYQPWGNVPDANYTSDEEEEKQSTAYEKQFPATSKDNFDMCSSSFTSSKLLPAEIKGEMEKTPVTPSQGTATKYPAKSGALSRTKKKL
YES1, sequence (P07947 whole entry): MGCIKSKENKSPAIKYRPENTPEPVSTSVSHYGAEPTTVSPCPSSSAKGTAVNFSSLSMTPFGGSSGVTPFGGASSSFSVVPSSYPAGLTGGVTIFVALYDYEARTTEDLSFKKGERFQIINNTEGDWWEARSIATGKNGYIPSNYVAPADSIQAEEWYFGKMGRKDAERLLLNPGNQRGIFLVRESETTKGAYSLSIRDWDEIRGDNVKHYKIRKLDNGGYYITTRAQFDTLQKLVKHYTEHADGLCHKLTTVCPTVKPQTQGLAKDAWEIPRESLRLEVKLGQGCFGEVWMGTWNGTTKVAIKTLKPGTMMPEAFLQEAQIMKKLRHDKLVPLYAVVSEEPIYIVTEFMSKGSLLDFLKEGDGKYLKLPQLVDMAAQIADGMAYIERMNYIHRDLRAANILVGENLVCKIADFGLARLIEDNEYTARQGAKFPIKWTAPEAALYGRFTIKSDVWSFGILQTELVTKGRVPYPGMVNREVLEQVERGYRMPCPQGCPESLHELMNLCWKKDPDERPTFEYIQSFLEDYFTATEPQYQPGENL

SMILES	remaining activity at 0.1 µM (MNK1) [%]	remaining activity at 1 µM (MNK1) [%]	remaining activity at 0.1 µM (BRSK1) [%]	remaining activity at 1 µM (BRSK1) [%]	remaining activity at 0.1 µM (EIF2AK3) [%]	remaining activity at 1 µM (EIF2AK3) [%]	remaining activity at 0.1 µM (MAPKAP-K3) [%]	remaining activity at 1 µM (MAPKAP-K3) [%]	remaining activity at 0.1 µM (PKC gamma) [%]	remaining activity at 1 µM (PKC gamma) [%]	EC50 [1] [nM]	IL-10 production at optimal dose [1]	further results
COc1cc(Nc2c(C#N)cnc3cc(OCCCN4CCN(C)CC4)c(OC)cc23)c(Cl)cc1Cl [Bosutinib, bosutinib]	99 ± 14	105 ± 2	101 ± 1	112 ± 5	107 ± 5	103	113 ± 1	103 ± 8	88 ± 6	102 ± 5	510	induced IL-10 production to similar levels as HG-9-91-01	remaining activity at 0.1 µM (TGFBR1; 0.1 µM): 87 ± 14%; remaining activity at 1 µM (TGFBR1; 1 µM): 101 ± 6%; Activity of Bcr-Abl, Src and Btk in primary mouse macrophages (Bcr-Abl, Src and Btk): completely blocking; remaining activity at 0.1 µM (Src; 0.1 µM): 1%; remaining activity at 1 µM (Src; 1 µM): 1%; remaining activity at 0.1 µM (YES1; 0.1 µM): 2 ± 1%; remaining activity at 1 µM (YES1; 1 µM): 1%; remaining activity at 0.1 µM (STK33; 0.1 µM): 34%; remaining activity at 1 µM (STK33; 1 µM): 17 ± 4%; remaining activity at 0.1 µM (Lck; 0.1 µM): 1%; remaining activity at 1 µM (Lck; 1 µM): 1%; IC50 (SIK3): 18 nM; IC50 (BTK): 15 nM
Cc1nc(Nc2ncc(C(=O)Nc3c(C)cccc3Cl)s2)cc(N2CCN(CCO)CC2)n1 [Dasatinib]	108	102 ± 9	126	123 ± 1	106 ± 6	113 ± 2	117 ± 3	132 ± 1	107 ± 22	114 ± 22	110	induced IL-10 production to similar levels as HG-9-91-01	

— article PMC4286194 (Biochemical Journal, 2015)
